Reference: ChEMBL document CHEMBL1821602, “The Use of 3,5,4'-Tri-O-acetylresveratrol as a Potential Pro-drug for Resveratrol Protects Mice from γ-Irradiation-Induced Death” (ACS Med Chem Lett, 2011)
Calls of active or inactive are those of the source. The calls are words filed in the database; no cut-off is given here.

What was measured:
[1] = species: Mus musculus; experiment: Radioprotective activity against 0 to 7 Gy gamma radiation-induced death in mouse 32Dcl3 cells at 10 uM treated 1 hr prior to irradiation after 7 days by microscopy; assay type: functional, cell-based
[2] = system: Serum; experiment: Metabolic stability in mouse serum assessed as hydrolysis to resveratrol with in 20 secs by HPLC analysis; assay type: ADME, cell-free; details: 20 s
[3] = system: Mus musculus; experiment: Radioprotective activity against 9.75 Gy gamma radiation-induced death in C57BL/6NHsd mouse assessed as survival rate at 10 mg/kg, ip administered 10 mins prior to irradiation; assay type: functional
[4] = system: Mus musculus; experiment: Radioprotective activity against 9.75 Gy gamma radiation-induced death in C57BL/6NHsd mouse assessed as increase in survival rate at 25 mg/kg, ip administered 10 mins after irradiation daily for 4 days; assay type: functional, organism-based; parameters: dose 25 mg/kg
[5] = Metabolic stability in mouse serum assessed as half life in presence of 1:1:8 mixture of EtOH/Cremophor EL/H2O by HPLC analysis; assay type: ADME, cell-free
[6] = system: Mus musculus; experiment: Radioprotective activity against 9.75 Gy gamma radiation-induced death in C57BL/6NHsd mouse assessed as increase in survival rate at 1 mg/kg, ip administered 10 mins prior to irradiation; assay type: functional, organism-based; parameters: dose 1 mg/kg
[7] = system: Serum; experiment: Metabolic stability in mouse serum up to 27 hrs by HPLC analysis; assay type: ADME, cell-free
[8] = Stability of the compound assessed as half life; assay type: physicochemical

Structure (SMILES): O=C(O[C@@H]1Cc2c(O)cc(O)cc2O[C@H]1c1ccc(O)c(O)c1)c1cc(O)c(O)c(O)c1
- Activity [1]: inactive

Structure (SMILES): CCCOC(=O)c1cc(O)c(O)c(O)c1
- Activity [1]: inactive

Structure (SMILES): CC(=O)Oc1ccc(/C=C/c2cc(OC(C)=O)cc(OC(C)=O)c2)cc1 [TRIACETYLRESVERATROL]
- Stability [2]: Unstable
- Activity ([3]; route intraperitoneal): 80%
- Activity [4]: inactive
- half-life [5]: 48 min
- Activity [6]: inactive

Structure (SMILES): Oc1ccc(/C=C/c2cc(O)cc(O)c2)cc1 [RESVERATROL]
- Activity [3]: inactive
- Stability [7]: Stable
- half-life [8]: 8 min
- Activity [4]: inactive
- Activity [6]: inactive
- Activity [1]: Active
